Laboratory results as given in the NIST ThermoML archive (doi:10.1021/je900878j).

Settings: 101.33 kPa, Liquid; for electrical conductivity: Symmetrical Wheatstone bridge; for viscosity: Capillary tube (Ostwald / Ubbelohde) method; for mass density: Vibrating tube method

CCn1cc[n+](C)c1.F[B-](F)(F)F [1-ethyl-3-methylimidazolium tetrafluoroborate]
Settings	electrical conductivity [S/m]	mass density [kg/m3]	viscosity [mPa·s]
238.15 K	0.04188	–	–
248.15 K	0.1088	–	–
258.15 K	0.2333	–	–
268.15 K	0.4316	–	–
269.15 K	–	–	145
273.15 K	–	–	114.1
278.15 K	0.7168	–	86.88
288.15 K	1.096	–	54.1
293.15 K	–	–	44.19
298.15 K	1.573	1288.8	36.17
303.15 K	1.847	1285	30.13
313.15 K	2.466	1277.5	21.77
323.15 K	3.176	1269.9	16.35
333.15 K	3.97	1262.4	12.7
343.15 K	4.843	–	10.12
353.15 K	5.794	–	8.23

CCCCn1cc[n+](C)c1.F[B-](F)(F)F [1-butyl-3-methylimidazolium tetrafluoroborate]
Settings	electrical conductivity [S/m]	mass density [kg/m3]	viscosity [mPa·s]
258.15 K	0.02318	–	–
268.15 K	0.05477	–	–
278.15 K	0.1137	–	–
288.15 K	0.2116	–	–
293.15 K	–	–	141.1
298.15 K	0.3587	1202.4	107.6
303.15 K	0.4543	1198.6	83.3
313.15 K	0.6913	1191.6	52.81
323.15 K	0.9942	1184.5	35.53
333.15 K	1.364	1177.3	25.11
343.15 K	1.8	–	18.48
353.15 K	2.301	–	14.06

CCn1cc[n+](C)c1.N#CN=C=[N-] [1-ethyl-3-methylimidazolium dicyanamide]
Settings	electrical conductivity [S/m]	mass density [kg/m3]	viscosity [mPa·s]
238.15 K	0.1546	–	–
248.15 K	0.3404	–	–
258.15 K	0.6305	–	75.38
263.15 K	–	–	56.81
268.15 K	1.035	–	44.24
273.15 K	–	–	35.22
278.15 K	1.556	–	28.59
288.15 K	2.189	–	19.81
293.15 K	–	–	16.85
298.15 K	2.928	1100.8	14.5
303.15 K	3.342	1097.5	12.62
313.15 K	4.226	1091	9.8
323.15 K	5.194	1084.4	7.83
333.15 K	6.236	1077.9	6.43
343.15 K	7.343	–	5.36
353.15 K	8.509	–	4.55

CCn1cc[n+](C)c1.O=S(=O)([N-]S(=O)(=O)C(F)(F)F)C(F)(F)F
Settings	electrical conductivity [S/m]	mass density [kg/m3]	viscosity [mPa·s]
248.15 K	0.0705	–	–
258.15 K	0.1475	–	–
263.15 K	–	–	175.1
268.15 K	0.2671	–	128.8
278.15 K	0.4347	–	75.13
288.15 K	0.6526	–	47.78
293.15 K	–	–	39.07
298.15 K	0.921	1519.3	32.46
303.15 K	1.074	1514.2	27.3
313.15 K	1.414	1504.3	19.97
323.15 K	1.799	1494.3	15.17
333.15 K	2.224	1484.4	11.87
343.15 K	2.689	–	9.54
353.15 K	3.189	–	7.83
